Activity calls are given as the source filed them.
Columns and labels:
[1] = biological target: T1, Cyclin-dependent kinase-like 5 (Homo sapiens, UniProt O76039)
T1 sequence (O76039 whole entry): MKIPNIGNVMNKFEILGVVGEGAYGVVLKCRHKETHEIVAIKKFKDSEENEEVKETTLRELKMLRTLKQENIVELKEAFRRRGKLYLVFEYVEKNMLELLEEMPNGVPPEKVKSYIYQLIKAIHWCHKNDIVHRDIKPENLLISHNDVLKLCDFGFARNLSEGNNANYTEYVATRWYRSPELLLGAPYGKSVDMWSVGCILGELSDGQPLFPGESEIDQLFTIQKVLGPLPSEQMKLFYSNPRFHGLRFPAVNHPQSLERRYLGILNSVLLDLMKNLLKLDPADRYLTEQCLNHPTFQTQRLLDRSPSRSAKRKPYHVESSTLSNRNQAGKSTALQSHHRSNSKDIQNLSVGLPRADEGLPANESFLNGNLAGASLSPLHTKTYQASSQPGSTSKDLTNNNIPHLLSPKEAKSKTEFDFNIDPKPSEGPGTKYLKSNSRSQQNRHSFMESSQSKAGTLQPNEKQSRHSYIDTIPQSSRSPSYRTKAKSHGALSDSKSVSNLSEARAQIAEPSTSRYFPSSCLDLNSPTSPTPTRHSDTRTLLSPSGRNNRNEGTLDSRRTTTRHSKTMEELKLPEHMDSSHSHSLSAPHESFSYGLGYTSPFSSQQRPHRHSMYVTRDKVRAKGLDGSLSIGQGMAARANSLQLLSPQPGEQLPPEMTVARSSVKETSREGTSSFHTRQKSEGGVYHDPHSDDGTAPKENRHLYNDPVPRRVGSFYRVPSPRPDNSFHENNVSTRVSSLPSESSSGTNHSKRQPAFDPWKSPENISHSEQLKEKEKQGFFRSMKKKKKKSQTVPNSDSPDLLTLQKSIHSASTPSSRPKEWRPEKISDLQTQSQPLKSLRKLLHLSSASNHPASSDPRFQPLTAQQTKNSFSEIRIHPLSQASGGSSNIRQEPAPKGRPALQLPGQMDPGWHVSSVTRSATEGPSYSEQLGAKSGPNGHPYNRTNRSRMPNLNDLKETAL

[2] = biological target: T2, Electron transfer flavoprotein subunit beta (Homo sapiens, UniProt P38117)
T2 sequence (P38117 whole entry): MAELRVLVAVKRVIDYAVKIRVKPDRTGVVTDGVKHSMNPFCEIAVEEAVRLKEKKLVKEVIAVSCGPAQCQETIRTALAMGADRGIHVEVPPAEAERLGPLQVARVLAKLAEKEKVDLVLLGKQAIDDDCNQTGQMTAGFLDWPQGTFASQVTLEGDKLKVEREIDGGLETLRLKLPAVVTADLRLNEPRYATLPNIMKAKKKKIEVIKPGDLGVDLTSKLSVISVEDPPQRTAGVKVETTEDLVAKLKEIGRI

[3] = biological target: T3, Dual specificity mitogen-activated protein kinase kinase 4 (Homo sapiens, UniProt P45985)
T3 sequence (P45985 whole entry): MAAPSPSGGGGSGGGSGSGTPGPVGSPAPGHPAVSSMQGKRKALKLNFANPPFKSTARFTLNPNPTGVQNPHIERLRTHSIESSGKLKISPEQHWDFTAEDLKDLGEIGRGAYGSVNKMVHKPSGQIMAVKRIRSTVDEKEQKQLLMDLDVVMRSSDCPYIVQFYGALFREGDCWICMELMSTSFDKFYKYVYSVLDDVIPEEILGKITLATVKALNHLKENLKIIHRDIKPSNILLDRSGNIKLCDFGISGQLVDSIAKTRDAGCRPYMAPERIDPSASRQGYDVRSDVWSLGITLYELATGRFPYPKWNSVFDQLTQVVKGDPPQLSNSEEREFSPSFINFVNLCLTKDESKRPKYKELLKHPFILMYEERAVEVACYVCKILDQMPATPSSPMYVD

[4] = biological target: T4, Tyrosine-protein kinase Mer (Homo sapiens, UniProt Q12866)
T4 sequence (Q12866 whole entry): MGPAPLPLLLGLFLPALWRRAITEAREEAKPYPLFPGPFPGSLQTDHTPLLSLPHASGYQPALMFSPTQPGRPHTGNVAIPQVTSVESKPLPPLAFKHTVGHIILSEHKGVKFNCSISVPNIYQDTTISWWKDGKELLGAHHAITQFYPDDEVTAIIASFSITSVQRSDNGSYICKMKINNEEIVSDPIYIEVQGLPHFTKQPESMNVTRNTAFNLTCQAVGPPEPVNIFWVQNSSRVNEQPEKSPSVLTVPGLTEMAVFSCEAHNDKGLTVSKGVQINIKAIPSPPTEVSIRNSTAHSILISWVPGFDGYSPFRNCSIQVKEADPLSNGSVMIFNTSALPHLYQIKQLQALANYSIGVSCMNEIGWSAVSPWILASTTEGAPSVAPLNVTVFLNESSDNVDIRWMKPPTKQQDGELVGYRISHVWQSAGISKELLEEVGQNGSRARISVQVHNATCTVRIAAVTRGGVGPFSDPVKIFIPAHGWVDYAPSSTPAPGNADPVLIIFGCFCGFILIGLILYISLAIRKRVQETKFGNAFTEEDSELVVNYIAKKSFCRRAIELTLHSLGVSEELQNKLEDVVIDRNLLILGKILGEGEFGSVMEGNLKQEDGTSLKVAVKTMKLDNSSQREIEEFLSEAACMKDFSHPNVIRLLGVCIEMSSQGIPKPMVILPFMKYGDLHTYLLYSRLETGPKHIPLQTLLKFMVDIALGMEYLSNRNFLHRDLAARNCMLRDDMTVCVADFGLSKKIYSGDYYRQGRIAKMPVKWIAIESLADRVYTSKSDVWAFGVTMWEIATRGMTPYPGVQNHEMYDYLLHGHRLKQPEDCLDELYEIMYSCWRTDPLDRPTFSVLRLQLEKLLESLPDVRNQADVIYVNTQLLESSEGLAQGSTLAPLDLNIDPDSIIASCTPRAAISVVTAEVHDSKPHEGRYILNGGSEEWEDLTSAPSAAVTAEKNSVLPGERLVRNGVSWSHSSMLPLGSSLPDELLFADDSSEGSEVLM

[5] = biological target: Serine/threonine-protein kinase pim-2 (Homo sapiens, UniProt Q9P1W9)
[6] = biological target: Serine/threonine-protein kinase Nek7 (Homo sapiens, UniProt Q8TDX7)

Measured: Kd
Also: in the data inactive means no Kd found up to 30 µM.

Serine/threonine-protein kinase Nek7, sequence (Q8TDX7 whole entry): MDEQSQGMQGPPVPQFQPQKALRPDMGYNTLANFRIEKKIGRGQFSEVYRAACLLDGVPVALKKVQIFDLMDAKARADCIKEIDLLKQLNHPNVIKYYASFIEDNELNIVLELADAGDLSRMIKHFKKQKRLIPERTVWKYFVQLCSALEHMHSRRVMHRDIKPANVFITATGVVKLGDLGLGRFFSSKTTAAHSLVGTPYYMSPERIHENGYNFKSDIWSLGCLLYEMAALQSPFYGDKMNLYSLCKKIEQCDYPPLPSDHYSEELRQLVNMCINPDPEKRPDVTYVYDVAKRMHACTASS
Serine/threonine-protein kinase pim-2, sequence (Q9P1W9 whole entry): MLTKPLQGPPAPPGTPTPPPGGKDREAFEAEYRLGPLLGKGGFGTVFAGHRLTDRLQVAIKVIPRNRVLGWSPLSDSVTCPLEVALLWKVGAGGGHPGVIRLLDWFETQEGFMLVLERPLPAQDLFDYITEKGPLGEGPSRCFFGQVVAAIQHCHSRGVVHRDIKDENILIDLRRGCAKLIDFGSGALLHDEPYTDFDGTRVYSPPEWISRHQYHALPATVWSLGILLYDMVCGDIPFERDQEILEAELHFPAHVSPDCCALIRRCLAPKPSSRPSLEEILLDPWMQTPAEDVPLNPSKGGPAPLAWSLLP

C=CC(=O)N1CCC[C@H](n2c(=O)n(-c3ccc(Oc4ccccc4)cc3)c3c(N)ncnc32)C1
inactive: [1] > 30 µM | [2] > 30 µM | [3] > 30 µM | [4] > 30 µM | [5] > 30 µM

Nc1ncnc2c1c(-c1cccc(OCc3ccccc3)c1)cn2[C@H]1C[C@@H](CN2CCC2)C1 [AEW-541]
inactive: [3] > 30 µM | [4] > 30 µM | [6] > 30 µM | [5] > 30 µM

CC(C)(C)c1nc(-c2cccc(NS(=O)(=O)c3c(F)cccc3F)c2F)c(-c2ccnc(N)n2)s1 [DABRAFENIB]
inactive: [1] > 30 µM | [2] > 30 µM | [3] > 30 µM | [4] > 30 µM | [5] > 30 µM

CNC(=O)c1nn(C)c2c1C(C)(C)Cc1cnc(Nc3ccc(N4CCN(C)CC4)cc3)nc1-2 [MILCICLIB]
inactive: [1] > 30 µM | [3] > 30 µM | [4] > 30 µM | [6] > 30 µM | [5] > 30 µM

CCOc1cc2ncc(C#N)c(Nc3ccc(F)c(Cl)c3)c2cc1NC(=O)/C=C/CN(C)C [PELITINIB]
inactive: [2] > 30 µM | [3] > 30 µM | [4] > 30 µM | [6] > 30 µM | [5] > 30 µM

Cc1cnc(NC(=O)Nc2cc(Br)c(C)cc2OC[C@@H]2CNCCO2)cn1 [RABUSERTIB]
inactive: [1] > 30 µM | [2] > 30 µM | [3] > 30 µM | [4] > 30 µM | [6] > 30 µM | [5] > 30 µM

CO[C@H]1C[C@@H]2CC[C@@H](C)[C@@](O)(O2)C(=O)C(=O)N2CCCC[C@H]2C(=O)O[C@H]([C@H](C)C[C@@H]2CC[C@@H](OP(C)(C)=O)[C@H](OC)C2)CC(=O)[C@H](C)/C=C(\C)[C@@H](O)[C@@H](OC)C(=O)[C@H](C)C[C@H](C)/C=C/C=C/C=C/1C [RIDAFOROLIMUS]
inactive: [1] > 30 µM | [2] > 30 µM | [3] > 30 µM | [4] > 30 µM | [6] > 30 µM | [5] > 30 µM

CO[C@H]1C[C@@H]2CC[C@@H](C)[C@@](O)(O2)C(=O)C(=O)N2CCCC[C@H]2C(=O)O[C@H]([C@H](C)C[C@@H]2CC[C@@H](OC(=O)C(C)(CO)CO)[C@H](OC)C2)CC(=O)[C@H](C)/C=C(\C)[C@@H](O)[C@@H](OC)C(=O)[C@H](C)C[C@H](C)/C=C/C=C/C=C/1C [TEMSIROLIMUS]
inactive: [1] > 30 µM | [2] > 30 µM | [3] > 30 µM | [4] > 30 µM | [6] > 30 µM | [5] > 30 µM

COc1cc2c(Nc3ccc(Cl)c(Cl)c3F)ncnc2cc1OC[C@@H]1C[C@@H]2CN(C)C[C@@H]2C1 [TESEVATINIB]
inactive: [1] > 30 µM | [3] > 30 µM | [4] > 30 µM | [6] > 30 µM

Source: ChEMBL document CHEMBL3991601, “The target landscape of clinical kinase drugs” (Science, 2017)
